Results from patent publication US7501430B2 (ArQule, Inc., priority 2006, dated 2009).

biological target: T1, mutant B-RAF (Homo sapiens, UniProt P15056, V600E); experiment: RAF biochemical assay (MEK-1 phosphorylation, anti-phospho MEK1/2 detection); conditions: not given
T1 construct: purchased Upstate (Charlottesville, Va.)
Procedure: Materials: The RAF kinases and the anti-phospho MEK1/2 antibody were from Upstate (Charlottesville, Va.). The RAF substrate used was full length N-terminal GST-MEK-1, which was expressed in E. coli and purified in-house by HPLC. All proteins were aliquoted and stored at −80° C.
Compounds were serially diluted in assay buffer containing 1% DMSO and 20 μL of test compound at a concentration 3-fold more than the final concentration, and were added to a polypropylene V-well reaction plate. Vehicle control wells received buffer only with DMSO at equivalent concentrations to the test wells. […] These reaction plates were incubated at room temperature for 30 minutes. Capture of MEK-1 was initiated by transferring 50 μl of the reaction mixture to a Nunc Maxisorp™ microplate that is designed for non-specific protein capture. After 30 minute capture of MEK-1 at room temperature, this plate was washed with TBST (6×200 μL/well) to fully terminate the reaction. The plate was then blocked for 1 hour by the addition of 100 μl/well of Superblock™ in phosphate buffered saline (PBS) blocking reagent. Plate was again washed with TBST (6 times with 200 μL/well), followed by the addition of 70 μL/well of Upstate anti-phospho MEK 1/2 diluted 1:1000 in Pierce Superblock (PBS). After a 60 minute incubation, this plate was washed with TBST (6 times with 200 μL/well), and 70 μL of the secondary antibody (Pierce Alkaline Phosphatase tagged goat anti-rabbit) prepared at 1:4000 in Superblock, were added. After a 45 minute incubation at room temperature, the wells of the microplate were washed with TBST (6 times with 200 μL/well), and thereafter 100 μl/well of Attophos™ fluorescent alkaline phosphatase substrate was added according to the manufacturer's instructions (JBL Scientific).

T1 sequence (P15056 whole entry V600E): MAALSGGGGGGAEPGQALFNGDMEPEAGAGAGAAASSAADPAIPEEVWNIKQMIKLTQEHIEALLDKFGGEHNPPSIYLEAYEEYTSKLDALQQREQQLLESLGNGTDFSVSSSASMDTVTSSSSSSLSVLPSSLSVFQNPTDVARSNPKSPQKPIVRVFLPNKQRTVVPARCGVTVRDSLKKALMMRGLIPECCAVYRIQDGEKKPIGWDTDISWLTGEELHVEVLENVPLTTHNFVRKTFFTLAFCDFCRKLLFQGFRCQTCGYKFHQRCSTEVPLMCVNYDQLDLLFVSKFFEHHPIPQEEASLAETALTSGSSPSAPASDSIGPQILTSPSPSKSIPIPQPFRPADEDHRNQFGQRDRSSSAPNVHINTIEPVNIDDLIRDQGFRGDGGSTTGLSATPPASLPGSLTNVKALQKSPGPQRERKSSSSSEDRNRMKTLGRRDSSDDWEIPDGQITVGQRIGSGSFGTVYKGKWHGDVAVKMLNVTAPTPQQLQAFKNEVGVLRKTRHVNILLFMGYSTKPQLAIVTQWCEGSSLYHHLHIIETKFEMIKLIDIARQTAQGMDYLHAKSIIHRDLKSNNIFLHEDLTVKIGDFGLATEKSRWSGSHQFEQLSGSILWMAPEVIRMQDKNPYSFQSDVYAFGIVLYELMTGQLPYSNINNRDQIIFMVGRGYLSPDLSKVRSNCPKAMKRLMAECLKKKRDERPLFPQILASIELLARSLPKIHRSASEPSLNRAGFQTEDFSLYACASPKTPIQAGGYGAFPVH

Structure (SMILES) | IC50 [nM]
CC(C)c1ccc(S(=O)(=O)N2CCC[C@@H](Nc3nccc(-c4c(-c5ccc(F)cc5)nc5occn45)n3)C2)cc1 [Example 48, 4-[6-(4-fluorophenyl)imi-dazo[2,1-b][1,3]oxazol-5-yl]-N-{(3R)-1-[(4-isopropyl-phenyl)sulfonyl]piperidin-3-yl}pyrimidin-2-amine] | 3020
O=S(=O)(c1ccc(C(F)(F)F)cc1)N1CCC[C@@H](Nc2nccc(-c3c(-c4ccc(F)cc4)nc4occn34)n2)C1 [Example 58, 4-[6-(4-fluorophenyl)imi-dazo[2,1-b][1,3]oxazol-5-yl]-N-((3R)-1-{[4-(trifluoro-methyl)phenyl]sulfonyl}piperidin-3-yl)pyrimidin-2-amine] | 403

same assay, conditions: @ 10 uM; read-out: Mutant B-RAF % inhibition

Structure (SMILES) | inhibition at 10 µM [%]
O=C(NCCc1ccc(F)cc1)N1CCC[C@@H](Nc2nccc(-c3c(-c4ccc(F)cc4)nc4occn34)n2)C1 [Example 71, (3R)-N-[2-(4-fluorophenyl)ethyl]-3-({4-[6-(4-fluorophenyl)imidazo[2,1-b][1,3]oxazol-5-yl]pyrimidin-2-yl}amino)piperidine-1-carboxamide] | 16
C[C@@H](NC(=O)N1CCC[C@@H](Nc2nccc(-c3c(-c4ccc(F)cc4)nc4occn34)n2)C1)c1ccccc1 [Example 72, (3R)-3-({4-[6-(4-fluorophenyl)imidazo[2,1-b][1,3]oxazol-5-yl]pyrimidin-2-yl}amino)-N-[(1R)-1-phenylethyl]piperidine-1-carboxamide] | 53

Results, then the compound that gave them:

inhibition at 10 µM [%] | Structure (SMILES)
35 | O=S(=O)(c1cccc(Cl)c1)N1CCC[C@@H](Nc2nccc(-c3c(-c4ccc(F)cc4)nc4occn34)n2)C1 [Example 50, N-{(3R)-1-[(3-chlorophenyl)sulfonyl]piper-idin-3-yl}-4-[6-(4-fluorophenyl)imidazo[2,1-b][1,3]oxazol-5-yl]pyrimidin-2-amine]
25 | O=S(=O)(c1cc(Cl)cc(Cl)c1)N1CCC[C@@H](Nc2nccc(-c3c(-c4ccc(F)cc4)nc4occn34)n2)C1 [Example 51, N-{(3R)-1-[(3,5-dichlorophenyl)sulfonyl]pip-eridin-3-yl}-4-[6-(4-fluorophenyl)imidazo[2,1-b][1,3]oxazol-5-yl]pyrimidin-2-amine]
47 | O=S(=O)(c1c(F)cccc1F)N1CCC[C@@H](Nc2nccc(-c3c(-c4ccc(F)cc4)nc4occn34)n2)C1 [Example 54, N-{(3R)-1-[(2,6-difluoro-phenyl)sulfonyl]piperidin-3-yl}-4-[6-(4-fluorophenyl)imidazo[2,1-b][1,3]oxazol-5-yl]pyrimidin-2-amine]
57 | O=S(=O)(c1cc(C(F)(F)F)cc(C(F)(F)F)c1)N1CCC[C@@H](Nc2nccc(-c3c(-c4ccc(F)cc4)nc4occn34)n2)C1 [Example 56, N-((3R)-1-{[3,5-bis(trifluoromethyl)phenyl]sulfonyl}piperidin-3-yl)-4-[6-(4-fluorophenyl)imidazo[2,1-b][1,3]oxazol-5-yl]pyrimidin-2-amine]
37 | COc1ccc(Cl)cc1S(=O)(=O)N1CCC[C@@H](Nc2nccc(-c3c(-c4ccc(F)cc4)nc4occn34)n2)C1 [Example 61, N-{(3R)-1-[(5-chloro-2-methoxyphenyl)sulfonyl]piperidin-3-yl}-4-[6-(4-fluorophenyl)imidazo[2,1-b][1,3]oxazol-5-yl]pyrimidin-2-amine]
58 | CC(=O)Nc1nc(C)c(S(=O)(=O)N2CCC[C@@H](Nc3nccc(-c4c(-c5ccc(F)cc5)nc5occn45)n3)C2)s1 [Example 64, N-(5-{[(3R)-3-({4-[6-(4-fluorophenyl)imidazo[2,1-b][1,3]oxazol-5-yl]pyrimidin-2-yl}amino)piperidin-1-yl]sulfonyl}-4-methyl-1,3-thiazol-2-yl)acetamide]
42 | Cc1nc(C)c(S(=O)(=O)N2CCC[C@@H](Nc3nccc(-c4c(-c5ccc(F)cc5)nc5occn45)n3)C2)s1 [Example 65, N-{(3R)-1-[(2,4-dimethyl-1,3-thiazol-5-yl)sulfonyl]piper-idin-3-yl}-4-[6-(4-fluorophenyl)imidazo[2,1-b][1,3]oxazol-5-yl]pyrimidin-2-amine]
70 | Cc1nc(S(=O)(=O)N2CCC[C@@H](Nc3nccc(-c4c(-c5ccc(F)cc5)nc5occn45)n3)C2)cn1C [Example 66, N-{(3R)-1-[(1,2-dimethyl-1H-imidazol-4-yl)sulfonyl]piper-idin-3-yl}-4-[6-(4-fluorophenyl)imidazo[2,1-b][1,3]oxazol-5-yl]pyrimidin-2-amine]
29 | Cc1cc(NC(=O)N2CCC[C@@H](Nc3nccc(-c4c(-c5ccc(F)cc5)nc5occn45)n3)C2)c(C(F)(F)F)o1 [Example 67, (3R)-3-({4-[6-(4-fluorophenyl)imidazo[2,1-b][1,3]oxazol-5-yl]pyrimidin-2-yl}amino)-N-[5-methyl-2-(trifluoromethyl)-3-furyl]piperidine-1-carboxamide]
42 | COc1ccc(NC(=O)N2CCC[C@@H](Nc3nccc(-c4c(-c5ccc(F)cc5)nc5occn45)n3)C2)c(OC)c1 [Example 69, (3R)-N-(2,4-dimethoxy-phenyl)-3-({4-[6-(4-fluorophenyl)imidazo[2,1-b][1,3]oxazol-5-yl]pyrimidin-2-yl}amino)piperidine-1-carboxamide]
49 | COc1ccc(Cl)cc1NC(=O)N1CCC[C@@H](Nc2nccc(-c3c(-c4ccc(F)cc4)nc4occn34)n2)C1 [Example 70, (3R)-N-(5-chloro-2-methoxyphenyl)-3-({4-[6-(4-fluorophenyl)imidazo[2,1-b][1,3]oxazol-5-yl]pyrimidin-2-yl}amino)piperidine-1-carboxamide]

same assay, conditions: read-out: Mutant B-RAF % inhibition

Structure (SMILES) | inhibition at 10 µM [%]
O=S(=O)(c1ccc(OC(F)(F)F)cc1)N1CCC[C@@H](Nc2nccc(-c3c(-c4ccc(F)cc4)nc4occn34)n2)C1 [Example 49, 4-[6-(4-fluorophenyl)imi-dazo[2,1-b][1,3]oxazol-5-yl]-N-((3R)-1-{(4-(trifluoro-methoxy)phenyl]sulfonyl}piperidin-3-yl)pyrimidin-2-amine] | 32
O=S(=O)(c1cccc(F)c1)N1CCC[C@@H](Nc2nccc(-c3c(-c4ccc(F)cc4)nc4occn34)n2)C1 [Example 52, 4-[6-(4-fluorophenyl)imi-dazo[2,1-b][1,3]oxazol-5-yl]-N-{(3R)-1-[(3-fluorophenyl)sulfonyl]piperidin-3-yl}pyr-imidin-2-amine] | 55
Cc1ccccc1S(=O)(=O)N1CCC[C@@H](Nc2nccc(-c3c(-c4ccc(F)cc4)nc4occn34)n2)C1 [Example 53, 4-(6-(4-fluorophenyl)imi-dazo[2,1-b][1,3]oxazol-5-yl]-N-{(3R)-1-[(2-methylphenyl)sulfonyl]piperidin-3-yl}pyrimidin-2-amine] | 42
COc1cccc(S(=O)(=O)N2CCC[C@@H](Nc3nccc(-c4c(-c5ccc(F)cc5)nc5occn45)n3)C2)c1 [Example 57, 4-[6-(4-fluorophenyl)imi-dazo[2,1-b][1,3]oxazol-5-yl]-N-{(3R)-1-[(3-methoxy-phenyl)sulfonyl]piperidin-3-yl}pyrimidin-2-amine] | 34
O=S(=O)(c1ccc(Oc2ccccc2)cc1)N1CCC[C@@H](Nc2nccc(-c3c(-c4ccc(F)cc4)nc4occn34)n2)C1 [Example 60, 4-[6-(4-fluorophenyl)imi-dazo[2,1-b][1,3]oxazol-5-yl]-N-{(3R)-1-[(4-phenoxy-phenyl)sulfonyl]piperidin-3-yl}pyrimidin-2-amine] | 15
Fc1ccc(-c2nc3sccn3c2-c2ccnc(N[C@@H]3CCCNC3)n2)cc1 [Example 62] | 45
O=C(NCC1CCCCC1)N1CCC[C@@H](Nc2nccc(-c3c(-c4ccc(F)cc4)nc4occn34)n2)C1 [Example 68, (3R)-N-(cyclohexylmethyl)-3-({4-[6-(4-fluorophenyl)imi-dazo[2,1-b][1,3]oxazol-5-yl]pyrimidin-2-yl}amino)piperidine-1-carboxamide] | 42

same assay, conditions: read-out: Mutant B-RAF IC50

IC50 [nM] | Structure (SMILES)
630 | N#Cc1ccc(S(=O)(=O)N2CCC[C@@H](Nc3nccc(-c4c(-c5ccc(F)cc5)nc5occn45)n3)C2)cc1 [Example 55, 4-{[(3R)-3-({4-[6-(4-fluorophenyl)imidazo[2,1-b][1,3]oxazol-5-yl]pyrimidin-2-yl}amino)piperidin-1-yl]sulfonyl}benzonitrile]
576 | O=C(O)c1ccc(S(=O)(=O)N2CCC[C@@H](Nc3nccc(-c4c(-c5ccc(F)cc5)nc5occn45)n3)C2)cc1 [Example 59, 4-{[(3R)-3-({4-[6-(4-fluorophenyl)imidazo[2,1-b][1,3]oxazol-5-yl]pyrimidin-2-yl}amino)piperidin-1-yl]sulfonyl}benzoic acid]
441 | O=C(O)CCc1ccc(S(=O)(=O)N2CCC[C@@H](Nc3nccc(-c4c(-c5ccc(F)cc5)nc5occn45)n3)C2)cc1 [Example 63, 3-(4-{[(3R)-3-({4-[6-(4-fluorophenyl)imidazo[2,1-b][1,3]oxazol-5-yl]pyrimidin-2-yl}amino)piperidin-1-yl]sulfonyl}phenyl)propanoicacid]
